PubChem BioAssay AID1259407 (Chemical Carcinogenesis Research Information System (CCRIS), 2018)
“Also recorded” adds a separate entry of the source. Active and inactive are the calls of the source. How the calls were made is not given here.

Test system: CCRIS mutagenicity, Ames/micronucleus/aberration tests
Test: CCRIS mutagenicity studies

O=C(c1ccccc1)C(O)c1ccccc1 (stereo unspecified)
mutagenic call (End Point: IN VITRO CHROMOSOMAL ABERRATIONS, Test System: CHL/IU CELLS, Metabolic Activation: RAT, LIVER, S-9, PHENOBARBITAL AND 5,6-BENZOFLAVONE): active; positive (structural changes) | mutagenic call (End Point: IN VITRO CHROMOSOMAL ABERRATIONS, Test System: CHO CELLS, Metabolic Activation: NONE): active; positive; weak response; precipitation occurred at 500 ug/ml; also recorded: inactive; negative; precipitation occurred at 500 ug/ml | mutagenic call (End Point: IN VITRO MICRONUCLEUS, Test System: CHL/IU CELLS, Metabolic Activation: RAT, LIVER, S-9, PHENOBARBITAL AND 5,6-BENZOFLAVONE): active; positive | mutagenic call (End Point: IN VIVO MICRONUCLEUS, Test System: BLOOD ERYTHROCYTES, Species: MOUSE, Strain/Sex: CD-1/MALE, Route: ORAL): inactive; negative | mutagenic call (Test System: AMES SALMONELLA TYPHIMURIUM, Strain/Indicator: TA97, Metabolic Activation: HAMSTER LIVER S-9, AROCLOR 1254 (10%), Method: PREINCUBATION): inactive; negative | mutagenic call (Test System: AMES SALMONELLA TYPHIMURIUM, Strain/Indicator: TA97, Metabolic Activation: NONE, Method: PREINCUBATION): inactive; negative | mutagenic call (Test System: AMES SALMONELLA TYPHIMURIUM, Strain/Indicator: TA97, Metabolic Activation: NONE, Method: STANDARD PLATE): inactive; negative | mutagenic call (Test System: AMES SALMONELLA TYPHIMURIUM, Strain/Indicator: TA97, Metabolic Activation: RAT LIVER S-9, AROCLOR 1254 (10%), Method: PREINCUBATION): inactive; negative | mutagenic call (Test System: AMES SALMONELLA TYPHIMURIUM, Strain/Indicator: TA97, Metabolic Activation: S-9, Method: STANDARD PLATE): inactive; negative | mutagenic call (Test System: AMES SALMONELLA TYPHIMURIUM, Strain/Indicator: TA98, Metabolic Activation: HAMSTER LIVER S-9, AROCLOR 1254 (10%), Method: PREINCUBATION): inactive; negative | mutagenic call (Test System: AMES SALMONELLA TYPHIMURIUM, Strain/Indicator: TA98, Metabolic Activation: NONE, Method: PREINCUBATION): inactive; negative | mutagenic call (Test System: AMES SALMONELLA TYPHIMURIUM, Strain/Indicator: TA98, Metabolic Activation: NONE, Method: STANDARD PLATE): inactive; negative | mutagenic call (Test System: AMES SALMONELLA TYPHIMURIUM, Strain/Indicator: TA98, Metabolic Activation: RAT LIVER S-9, AROCLOR 1254 (10%), Method: PREINCUBATION): inactive; negative | mutagenic call (Test System: AMES SALMONELLA TYPHIMURIUM, Strain/Indicator: TA98, Metabolic Activation: RAT, LIVER, S-9, AROCLOR 1254, Method: STANDARD PLATE): inactive; negative | mutagenic call (Test System: AMES SALMONELLA TYPHIMURIUM, Strain/Indicator: TA98, Metabolic Activation: S-9, Method: STANDARD PLATE): inactive; negative | mutagenic call (Test System: AMES SALMONELLA TYPHIMURIUM, Strain/Indicator: TA100, Metabolic Activation: HAMSTER LIVER S-9, AROCLOR 1254 (10%), Method: PREINCUBATION): inactive; negative | mutagenic call (Test System: AMES SALMONELLA TYPHIMURIUM, Strain/Indicator: TA100, Metabolic Activation: NONE, Method: PREINCUBATION): inactive; negative | mutagenic call (Test System: AMES SALMONELLA TYPHIMURIUM, Strain/Indicator: TA100, Metabolic Activation: NONE, Method: STANDARD PLATE): inactive; negative | mutagenic call (Test System: AMES SALMONELLA TYPHIMURIUM, Strain/Indicator: TA100, Metabolic Activation: RAT LIVER S-9 AROCLOR 1254 (10%), Method: PREINCUBATION): inactive; negative | mutagenic call (Test System: AMES SALMONELLA TYPHIMURIUM, Strain/Indicator: TA100, Metabolic Activation: RAT, LIVER, S-9, AROCLOR 1254, Method: STANDARD PLATE): inactive; negative | mutagenic call (Test System: AMES SALMONELLA TYPHIMURIUM, Strain/Indicator: TA100, Metabolic Activation: S-9, Method: STANDARD PLATE): inactive; negative | mutagenic call (Test System: AMES SALMONELLA TYPHIMURIUM, Strain/Indicator: TA102, Metabolic Activation: NONE, Method: STANDARD PLATE): inactive; negative | mutagenic call (Test System: AMES SALMONELLA TYPHIMURIUM, Strain/Indicator: TA102, Metabolic Activation: RAT LIVER S-9, PHENOBARBITAL AND 5,6-BENZOFLAVONE, Method: STANDARD PLATE): inactive; negative | mutagenic call (Test System: AMES SALMONELLA TYPHIMURIUM, Strain/Indicator: TA102, Metabolic Activation: RAT, LIVER, S-9, AROCLOR 1254, Method: STANDARD PLATE): inactive; negative | mutagenic call (Test System: AMES SALMONELLA TYPHIMURIUM, Strain/Indicator: TA102, Metabolic Activation: S-9, Method: STANDARD PLATE): inactive; negative | mutagenic call (Test System: AMES SALMONELLA TYPHIMURIUM, Strain/Indicator: TA1535, Metabolic Activation: HAMSTER LIVER S-9, AROCLOR 1254 (5%), Method: PREINCUBATION): inactive; negative | mutagenic call (Test System: AMES SALMONELLA TYPHIMURIUM, Strain/Indicator: TA1535, Metabolic Activation: HAMSTER LIVER S-9, AROCLOR 1254 (10%), Method: PREINCUBATION): inactive; negative | mutagenic call (Test System: AMES SALMONELLA TYPHIMURIUM, Strain/Indicator: TA1535, Metabolic Activation: NONE, Method: PREINCUBATION): active; positive | mutagenic call (Test System: AMES SALMONELLA TYPHIMURIUM, Strain/Indicator: TA1535, Metabolic Activation: NONE, Method: STANDARD PLATE): inactive; negative | mutagenic call (Test System: AMES SALMONELLA TYPHIMURIUM, Strain/Indicator: TA1535, Metabolic Activation: RAT LIVER S-9, AROCLOR 1254 (5%), Method: PREINCUBATION): inactive; negative | mutagenic call (Test System: AMES SALMONELLA TYPHIMURIUM, Strain/Indicator: TA1535, Metabolic Activation: RAT LIVER S-9, AROCLOR 1254 (10%), Method: PREINCUBATION): inactive; negative | mutagenic call (Test System: AMES SALMONELLA TYPHIMURIUM, Strain/Indicator: TA1535, Metabolic Activation: RAT, LIVER, S-9, AROCLOR 1254, Method: STANDARD PLATE): inactive; negative | mutagenic call (Test System: AMES SALMONELLA TYPHIMURIUM, Strain/Indicator: TA1537, Metabolic Activation: NONE, Method: STANDARD PLATE): inactive; negative | mutagenic call (Test System: AMES SALMONELLA TYPHIMURIUM, Strain/Indicator: TA1537, Metabolic Activation: RAT, LIVER, S-9, AROCLOR 1254, Method: STANDARD PLATE): inactive; negative | mutagenic call (Test System: AMES SALMONELLA TYPHIMURIUM, Strain/Indicator: TA1538, Metabolic Activation: NONE, Method: STANDARD PLATE): inactive; negative | mutagenic call (Test System: AMES SALMONELLA TYPHIMURIUM, Strain/Indicator: TA1538, Metabolic Activation: RAT, LIVER, S-9, AROCLOR 1254, Method: STANDARD PLATE): inactive; negative | mutagenic call (Test System: AMES SALMONELLA TYPHIMURIUM, Strain/Indicator: TA2638, Metabolic Activation: RAT LIVER S-9, PHENOBARBITAL AND 5,6-BENZOFLAVONE, Method: STANDARD PLATE): inactive; negative | mutagenic call (Test System: CHINESE HAMSTER OVARY, Strain/Indicator: CHO-K1-BH4 (HGPRT)/6-THIOGUANINE, Metabolic Activation: NONE, Method: SUSPENSION/PLATE): inactive; negative | mutagenic call (Test System: CHINESE HAMSTER OVARY, Strain/Indicator: CHO-K1-BH4 (HGPRT)/6-THIOGUANINE, Metabolic Activation: S-9, Method: SUSPENSION/PLATE): inactive; negative | mutagenic call (Test System: CHINESE HAMSTER OVARY, Strain/Indicator: CHO-K1-BH4 (HGPRT), Metabolic Activation: NONE, Method: SUSPENSION/PLATE): inactive; negative | mutagenic call (Test System: CHINESE HAMSTER OVARY, Strain/Indicator: CHO-K1-BH4 (HGPRT), Metabolic Activation: RAT, LIVER, S-9, AROCLOR, Method: SUSPENSION/PLATE): inactive; negative | mutagenic call (Test System: CHINESE HAMSTER V-79, Strain/Indicator: V-79 (HGPRT)/8-AZAGUANINE, Metabolic Activation: NONE, Method: REPLATING): inactive; negative | mutagenic call (Test System: CHINESE HAMSTER V-79, Strain/Indicator: V-79 (HGPRT)/8-AZAGUANINE, Metabolic Activation: RAT, LIVER, S-9, AROCLOR 1254, Method: REPLATING): active; positive | mutagenic call (Test System: CHINESE HAMSTER V-79, Strain/Indicator: V-79/6-THIOGUANINE, Metabolic Activation: NONE, Method: REPLATING): inactive; negative | mutagenic call (Test System: CHINESE HAMSTER V-79, Strain/Indicator: V-79/6-THIOGUANINE, Metabolic Activation: RAT, LIVER, S-9, PHENOBARBITAL AND 5,6-BENZOFLAVONE, Method: REPLATING): active; positive | mutagenic call (Test System: CHINESE HAMSTER V-79, Strain/Indicator: V-79/OUABAIN, Metabolic Activation: HAMSTER EMBRYO CELL-MEDIATED): inactive; negative | mutagenic call (Test System: CHINESE HAMSTER V-79, Strain/Indicator: V-79/OUABAIN, Metabolic Activation: NONE): inactive; negative | mutagenic call (Test System: CHINESE HAMSTER V-79, Strain/Indicator: V-79/OUABAIN, Metabolic Activation: RAT, LIVER, S-15, PHENOBARBITAL AND 5,6-BENZOFLAVONE): inactive; negative | mutagenic call (Test System: E. COLI, Strain/Indicator: WP2 (PKM101), Metabolic Activation: RAT LIVER S-9, PHENOBARBITAL AND 5,6-BENZOFLAVONE, Method: STANDARD PLATE): inactive; negative | mutagenic call (Test System: E. COLI, Strain/Indicator: WP2 UVRA (PKM101), Metabolic Activation: RAT LIVER S-9, PHENOBARBITAL AND 5,6-BENZOFLAVONE, Method: STANDARD PLATE): inactive; negative | mutagenic call (Test System: MOUSE LYMPHOMA, Strain/Indicator: L5178Y (TK+/-)/TRIFLUROTHYMIDINE, Metabolic Activation: NONE, Method: SUSPENSION/PLATE): inactive; negative | mutagenic call (Test System: MOUSE LYMPHOMA, Strain/Indicator: L5178Y (TK+/-)/TRIFLUROTHYMIDINE, Metabolic Activation: RAT LIVER S-9, AROCLOR 1254, Method: SUSPENSION/PLATE): inactive; negative | mutagenic call (Test System: MOUSE LYMPHOMA, Strain/Indicator: L5178Y (TK+/TK-), Metabolic Activation: NONE, Method: SUSPENSION/PLATE): inactive; negative | mutagenic call (Test System: MOUSE LYMPHOMA, Strain/Indicator: L5178Y (TK+/TK-), Metabolic Activation: RAT, LIVER, S-9, Method: SUSPENSION/PLATE): inactive; negative | mutagenic call (Test System: MOUSE LYMPHOMA, Strain/Indicator: L5178Y (TK+/TK-), Metabolic Activation: S-9, Method: SUSPENSION/PLATE): active; positive | mutagenic call (Test System: UDS RAT HEPATOCYTES, Strain/Indicator: THY INCORP, Metabolic Activation: NONE, Method: LIQUID SCINTILLATION COUNTING): active; positive
